Results reported in patent publication US20240069010A1, “TISSUE ORGANOID BIOPRINTING AND HIGH-THROUGHPUT SCREENING METHODOLOGY” (priority 2020, published 2024).
Like-named read-outs stand apart in the source and are kept apart here.

Legend:
MCF-7 organoids [1] = assay: Endpoint ATP-release assay (CellTiter-Glo) of organoid viability; assay type: cell-based; settings: for viability at 0.1 µM / viability at 1 µM / viability at 10 µM: Homo sapiens; for Organoid viability by endpoint ATP assay, Viability ± SD: MCF-7, 72 h of treatment, luminescence relative to 1% DMSO control
Description: All drug treatments of 3D organoids were performed in serum-free conditions in MammoCult™ medium supplemented with 1% antibiotic-antimycotic (Gibco 15240-062). A detailed protocol for the drug screening has been published previously in Phan, N. et al. supra; and Nguyen, H. T. L. & Soragni, supra. Briefly, the culture medium was fully removed three days after seeding and replaced with 100 μL of MammoCult™ medium containing the indicated treatments using an automated pipetting system (EpMotion® 96). After treatment, we transferred the organoids to the HSLCI for imaging. Organoids were imaged by HSLCI between 6 hours and 48 hours after treatment. After imaging, we performed an ATP assay to assess cell viability in accordance with the manufacturer's instructions. The media was aspirated from each well and replaced with 50 μL of 5 mg/mL Dispase (Thermo-Fisher) solution to digest the Matrigel. After a 25-minute incubation at 37° C., the plate was placed on an orbital shaker for 5 minutes at 80 RPM. We then added 30 μL of CellTiter-Glo® reagent (Promega), sealed the plate with film, covered the plate with foil to protect from light, shook the plate for 5 minutes at 80 RPM, and incubated at room temperature for an additional 20 minutes. We used a SpectraMax iD3 plate reader to measure luminescence. The program parameters for luminescence readings were 5 minutes of shaking prior to reading, reading all wavelengths, and integrating signal over 500 ms. Organoid viability within each well was calculated by dividing the luminescent signal from each well by the mean luminescence of the control (1% DMSO) wells. Two-tailed independent t-tests were performed to assess the statistical significance of the differences in organoid mass and cell viability. P-values less than 0.05 were deemed significant.

MCF-7 organoids [2] = assay: HSLCI mass tracking of bioprinted organoids in drug screening; assay type: cell-based; settings: for Mean mass of MCF-7 organoids, Mean mass ± SD: 48 hours of treatment; for Organoid Behavior (%) Stable / Organoid Behavior (%) Gained Mass / Organoid Behavior (%) Lost Mass: MCF-7 organoids; for Organoid Behavior (%) Stable: mass change <10%; for Organoid Behavior (%) Gained Mass: mass increase >10%; for Organoid Behavior (%) Lost Mass: mass loss >10%
Excerpt: Cells were bioprinted using a CELLINK BioX with a Temperature-Controlled Printhead. Gcode files were written to print the desired single-layer geometry. We wrote standardized blocks of Gcode encode the print path for the repeated geometries. MATLAB (MathWorks, Inc.) was used to integrate these standardized blocks into full Gcode files with the defined coordinates for each well. We used 8-well plates when printing the larger constructs as the depth of the well in a standard 24-well plate prohibited the use of 0.5″ length needles. Large rings were necessary to deposit a sufficient number of cells for RNA-Seq and IHC. Four rings with a diameter of 14.5 mm were printed for RNA sequencing (approximately 200,000 cells total), while four sets of concentric 14.5 mm, 12.5 mm, and 10.5 mm diameter rings were used for IHC analysis (approximately 500,000 cells total). We printed mini-squares with side length 3.9 mm for drug screening and HSLCI imaging. The mini-squares were inscribed within the circular well with sides parallel to the sides of the well plate. The open center of the constructs facilitates automatic manipulation with fluid handling equipment while the sides of the square are positioned to maximize the number of organoids imaged by HSLCI. The bioprinting process utilized the same material deposited for manually seeded organoids. A single cell suspension, aggregates or clusters in a 3:4 mixture of MammoCult™ and Matrigel® was prepared on ice. After vortexing briefly to homogenize, the mixture was transferred into a 3 mL syringe by removing the plunger and capping the opposite end. Once the plunger was replaced, the syringe was inverted, and bubbles were forced out of the tip. The material was then transferred to a room temperature 3 mL bioprinter cartridge (CELLINK) by connecting the syringe and cartridge with a double-sided female Luer lock adapter (CELLINK). Any air bubbles in the syringe were removed and the loaded cartridge was incubated in a rotating incubator (Enviro-Genie, Scientific Industries) for 30 minutes at the print temperature.
During the incubation period, the printer was sterilized with the built-in UV irradiation function and the printhead was set to the print temperature. […] The well masks were autoclaved prior to use. The masks were inserted into the well plate and pressed in contact with the glass surface. Rubber bands were used to hold the masks in place and ensure conformal contact was maintained throughout the plasma treatment. The well plates were treated with oxygen plasma in a PE-25 (Plasma Etch) for 30-90 seconds, 15 minutes prior to bioprinting. After plasma treatment, the well plate was placed in the bioprinter and Automatic Bed Levelling (ABL) was performed.
Once the incubation period ended, we attached a 0.5″ 25-gauge needle and loaded the cartridge into the pre-cooled printhead. We primed the needle by extruding a small volume of material at 15 kPa prior to calibrating the printer. Just before printing, we cleared the needle of the gelled material by extruding a small volume using 40 kPa prior to starting the print. To create constructs of the appropriate thicknesses, prints in 8-well plates were extruded at 15 kPa while prints in 96-well plates were extruded at 12-15 kPa. […] After printing, the constructs were incubated at 37° C. for at least 30 minutes to solidify the matrix and 100 μL of MammoCult™ medium was then added.
The HSLCI platform was installed inside a standard cell culture incubator. For all growth kinetics studies and drug screening, organoids were imaged in 96-well glass-bottom plates (Cellvis P96-1.5H-N) using a 40× objective (Nikon, NA 0.75). Organoids were seeded as single-cell suspensions in a 3:4 mixture of MammoCult™ and Matrigel® as described above and were grown at 37° C. and 5% CO2 in MammoCult™ medium supplemented with 1% antibiotic-antimycotic (Gibco 15240-062).

[3] = MCF7, 6 h, read-out: Comparisons of cell viability measures by ATP detection assay, Mean mass ± SD
[4] = MCF7, 72 h, read-out: Organoid viability by endpoint ATP assay, Viability ± SD

CN[C@@H]1C[C@H]2O[C@@](C)([C@@H]1OC)n1c3ccccc3c3c4c(c5c6ccccc6n2c5c31)C(=O)NC4 [Staurosporine, staurosporine]
viability at 0.1 µM (MCF-7 organoids [1]; [3]): 50 ± 8%
viability at 1 µM (MCF-7 organoids [1]; [3]): 17 ± 4%
viability at 10 µM (MCF-7 organoids [1]; [3]): 13 ± 3%
viability at 0.1 µM (MCF-7 organoids [1]; [4]): 50 ± 8%
viability at 1 µM (MCF-7 organoids [1]; [4]): 17 ± 4%
viability at 10 µM (MCF-7 organoids [1]; [4]): 13 ± 3%
Organoid viability by endpoint ATP assay, Viability ± SD (MCF-7 organoids [1]; 1 μM): near-zero viability
Organoid viability by endpoint ATP assay, Viability ± SD (MCF-7 organoids [1]; 10 μM): near-zero viability
Mean mass of MCF-7 organoids, Mean mass ± SD (MCF-7 organoids [2]; 1 μM): 1.33 ± 1.07 ng
Mean mass of MCF-7 organoids, Mean mass ± SD (MCF-7 organoids [2]; 1 μM, listed as staurosporine): 1.33 ± 1.08 ng
Mean mass of MCF-7 organoids, Mean mass ± SD (MCF-7 organoids [2]; 10 μM): 1.26 ± 0.78 ng
Mean mass of MCF-7 organoids, Mean mass ± SD (MCF-7 organoids [2]; 10 μM, listed as staurosporine): 1.26 ± 0.80 ng
Organoid Behavior (%) Stable (MCF-7 organoids [2]; 0.1 μM, 12 h): 76.5%
Organoid Behavior (%) Gained Mass (MCF-7 organoids [2]; 0.1 μM, 12 h): 8.8%
Organoid Behavior (%) Lost Mass (MCF-7 organoids [2]; 0.1 μM, 12 h): 14.7%
Organoid Behavior (%) Stable (MCF-7 organoids [2]; 0.1 μM, 24 h): 60.5%
Organoid Behavior (%) Lost Mass (MCF-7 organoids [2]; 0.1 μM, 24 h): 23.3%
Organoid Behavior (%) Stable (MCF-7 organoids [2]; 0.1 μM, 48 h): 38.2%
Organoid Behavior (%) Gained Mass (MCF-7 organoids [2]; 0.1 μM, 48 h): 29.4%
Organoid Behavior (%) Lost Mass (MCF-7 organoids [2]; 0.1 μM, 48 h): 32.4%
Organoid Behavior (%) Stable (MCF-7 organoids [2]; 1 μM, 12 h): 82.1%
Organoid Behavior (%) Gained Mass (MCF-7 organoids [2]; 1 μM, 12 h): 7.1%
Organoid Behavior (%) Lost Mass (MCF-7 organoids [2]; 1 μM, 12 h): 10.7%
Organoid Behavior (%) Stable (MCF-7 organoids [2]; 1 μM, 24 h): 71.4%
Organoid Behavior (%) Gained Mass (MCF-7 organoids [2]; 1 μM, 24 h): 3.6%
Organoid Behavior (%) Lost Mass (MCF-7 organoids [2]; 1 μM, 24 h): 25.0%
Organoid Behavior (%) Stable (MCF-7 organoids [2]; 1 μM, 48 h): 73.3%
Organoid Behavior (%) Lost Mass (MCF-7 organoids [2]; 1 μM, 48 h): 26.7%
Organoid Behavior (%) Stable (MCF-7 organoids [2]; 10 μM, 12 h): 79.6%
Organoid Behavior (%) Gained Mass (MCF-7 organoids [2]; 10 μM, 12 h): 2.0%
Organoid Behavior (%) Lost Mass (MCF-7 organoids [2]; 10 μM, 12 h): 18.4%
Organoid Behavior (%) Stable (MCF-7 organoids [2]; 10 μM, 24 h): 51.4%
Organoid Behavior (%) Gained Mass (MCF-7 organoids [2]; 10 μM, 24 h): 0.0%
Organoid Behavior (%) Lost Mass (MCF-7 organoids [2]; 10 μM, 24 h): 48.6%
Organoid Behavior (%) Stable (MCF-7 organoids [2]; 10 μM, 48 h): 32.1%
Organoid Behavior (%) Gained Mass (MCF-7 organoids [2]; 10 μM, 48 h): 3.6%
Organoid Behavior (%) Lost Mass (MCF-7 organoids [2]; 10 μM, 48 h): 64.3%
